In patent publication US9422239B1, “Dual PPAR-δ PPAR-γ agonists” (Auburn University, priority 2013, dated 2016):
Each block holds one compound with its values, some of them ahead of it.

Tests used:
[1] = target: T1, PPARγ (AP2-PPRE) (Homo sapiens, UniProt P37231); assay: AP2-PPRE luciferase assay in HEK-293 cells; format: cell-based; settings: luciferase assay, HEK-293 cells, 10 μM
T1 construct: expressed in transfected cells; host or cells: HEK-293
T1 sequence (P37231 1-505): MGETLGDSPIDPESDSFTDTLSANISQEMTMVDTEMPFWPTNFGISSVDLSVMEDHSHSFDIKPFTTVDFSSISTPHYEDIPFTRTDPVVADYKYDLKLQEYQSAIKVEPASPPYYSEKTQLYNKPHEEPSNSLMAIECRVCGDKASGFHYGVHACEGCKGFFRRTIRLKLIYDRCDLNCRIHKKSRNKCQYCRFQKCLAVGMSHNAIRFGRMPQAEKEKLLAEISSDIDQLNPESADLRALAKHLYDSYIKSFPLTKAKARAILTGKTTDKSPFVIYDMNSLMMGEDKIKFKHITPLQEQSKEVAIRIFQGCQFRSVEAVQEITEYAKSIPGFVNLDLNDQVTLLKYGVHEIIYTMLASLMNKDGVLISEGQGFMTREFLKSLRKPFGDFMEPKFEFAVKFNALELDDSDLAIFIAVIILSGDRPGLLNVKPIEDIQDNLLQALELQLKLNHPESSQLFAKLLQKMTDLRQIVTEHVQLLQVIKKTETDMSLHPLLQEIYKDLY
T1 sequence (P19793 1-462 partner): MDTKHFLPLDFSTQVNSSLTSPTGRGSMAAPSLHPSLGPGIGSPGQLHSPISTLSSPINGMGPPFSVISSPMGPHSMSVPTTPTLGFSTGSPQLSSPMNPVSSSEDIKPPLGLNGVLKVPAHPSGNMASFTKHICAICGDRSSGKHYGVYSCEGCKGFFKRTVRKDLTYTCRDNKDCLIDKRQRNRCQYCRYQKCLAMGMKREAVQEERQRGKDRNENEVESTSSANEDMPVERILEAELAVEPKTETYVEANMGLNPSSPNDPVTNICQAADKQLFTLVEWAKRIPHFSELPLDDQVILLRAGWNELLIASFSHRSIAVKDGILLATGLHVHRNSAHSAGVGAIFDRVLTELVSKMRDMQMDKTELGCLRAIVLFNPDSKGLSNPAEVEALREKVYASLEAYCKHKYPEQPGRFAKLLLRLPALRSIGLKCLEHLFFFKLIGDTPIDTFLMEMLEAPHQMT
Excerpt: (§1) To validate the specificity of the novel compounds towards activation of PPARγ/δ targets, we tested the compounds capacity to bind to select PPARγ/δ Peroxisome Proliferator Response Elements (PPRE). The PPRE are unique sites located in the promoter region where PPARs bind and transcriptionally activate the target genes. AP2-PPRE is the PPARγ target involved in adipocyte growth and differentiation. PDK4-PPRE is a PPARδ target involved in regulating energy metabolism in the cell. These PPREs were inserted into a PGL3 luciferase vectors containing CMV promoters (ADDGENE) using PCR. These vectors were co-transfected with RXR, PPARγ/PPARδ and p-galactosidase vectors into HEK-293 cells using Lipofectamine 2000 (Invitrogen). Relative light units (RLU) were measured using a Glomax Luminometer (Promega). Data were standardized to p-galactosidase activity using ONPG (Promega).

[2] = target: T2, PPARδ (PDK4-PPRE) (Homo sapiens, UniProt Q03181); assay: PDK4-PPRE luciferase assay in HEK-293 cells; format: cell-based
T2 construct: expressed in transfected cells; host or cells: HEK-293
T2 sequence (Q03181 1-441): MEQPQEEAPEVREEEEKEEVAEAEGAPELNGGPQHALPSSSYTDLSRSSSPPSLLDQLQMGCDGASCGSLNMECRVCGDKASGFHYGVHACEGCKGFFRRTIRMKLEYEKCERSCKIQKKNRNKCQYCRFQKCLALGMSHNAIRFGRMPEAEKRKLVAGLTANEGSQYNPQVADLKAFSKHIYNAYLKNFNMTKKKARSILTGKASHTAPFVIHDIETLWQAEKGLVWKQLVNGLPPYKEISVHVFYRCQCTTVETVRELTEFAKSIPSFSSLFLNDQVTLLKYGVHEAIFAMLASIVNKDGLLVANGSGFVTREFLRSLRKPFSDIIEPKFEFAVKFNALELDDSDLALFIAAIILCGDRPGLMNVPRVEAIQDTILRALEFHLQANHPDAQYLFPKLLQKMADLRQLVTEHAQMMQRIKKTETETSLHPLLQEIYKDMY
T2 sequence (P19793 1-462 partner): T1 sequence (P19793 1-462 partner)
Excerpt: as §1

[3] = system: 3T3-L1 adipocytes; assay: Lipid accumulation by oil red-o staining; format: cell-based; settings: 6 days, oil red-o stain
Experimental: 3T3L1 adipocytes were cultured and treated with the novel compounds for a period of 6 days. Lipid accumulation was determined by oil red-o staining, and measured the absorbance spectrophotometrically at a wavelength of 510 nm and standardized to total protein concentrations. Data from lipid accumulation studies were compared to cells treated with rosiglitazone (a full PPARγ agonist).

[4] = system: C2C12 skeletal muscle cells; assay: Mitochondrial biogenesis markers by quantitative RT-PCR; format: cell-based; settings: 4 days
Experimental: Therefore, to test the effects of the novel compounds on mitochondrial biogenesis, C2C12 skeletal muscle cells were cultured and treated with the novel compounds for 4 days. Changes associated with markers for mitochondrial biogenesis were determined by quantitative real time PCR.

[5] = Heart size (heart weight to body weight ratio); format: in vivo; settings: 10 mg/kg oral daily for 1 month, wild type and db/db mice
Experimental: Diabetic db/db mice were fed a normal rodent chow diet. […] Mice were then weighed and their hearts were extracted and weighed. The heart weight of the mice compared to the body weight of the mice was then calculated based upon heart weight to body weight ratio.

[6] = system: db/db mice; assay: Hippocampal slice electrophysiology (LTP, PTP); format: in vivo
[7] = in vivo; cited from earlier work
[8] = Biodistribution by LC-Mass Spectral analysis; settings: mice, 3 mg/kg (table); for concentration at 4 h: mouse, po, 3 mg/kg

Structure (SMILES): Cc1cc(SCc2sc(-c3ccc(C(F)(F)F)c(F)c3)nc2C)ccc1OCC(=O)O [GW0742, reference compound]
- Gene expression of mitochondrial markers [4]: increases

Structure (SMILES): CC(C(=O)O)c1ccc(CNCc2ccc(Cl)c(Cl)c2)cc1 (stereo not shown) [Compound 4-23]
- Lipid accumulation [3]: less lipid accumulation

Now from value to compound, other results behind:

- Binding affinity for the AP2-PPRE [1]: less binding affinity
- Binding affinity for the PDK4-PPRE [2]: less binding affinity
Structure (SMILES): CCOC(CNCc1ccc(C(F)(F)F)cc1)OCC [Compound 3-121]
- Lipid accumulation [3]: less lipid accumulation
- Lipid accumulation ([3]; listed as compound 3-121): insignificant induction of adiposity

- Binding affinity for the AP2-PPRE [1]: strong binding affinity
- Binding affinity for the PDK4-PPRE [2]: less binding affinity
Structure (SMILES): COc1ccc(CN(CCN2C(=O)c3ccccc3C2=O)S(=O)(=O)c2c(C)cc(C)cc2C)cc1 [Compound 3-91]
- Lipid accumulation [3]: comparable to rosiglitazone

- Concentration ([8]; Brain, oral, 4 hours): Not Detected
- concentration at 4 h ([8]; adipose, Concentration): 13 ng/mL
- concentration at 4 h ([8]; adipose, Tissue Concentration): 5 ng/mL
- concentration at 4 h ([8]; adipose, Tissue Distribution): 2.24 ng/mL
- concentration at 4 h ([8]; blood, Concentration): 247 ng/mL
- concentration at 4 h ([8]; heart, Concentration): 12.8 ng/mL
- concentration at 4 h ([8]; heart, Tissue Concentration): 2.12 ng/mL
- concentration at 4 h ([8]; heart, Tissue Distribution): 0.64 ng/mL
- concentration at 4 h ([8]; liver, Concentration): 250 ng/mL
- concentration at 4 h ([8]; liver, Tissue Concentration): 8.89 ng/mL
- concentration at 4 h ([8]; liver, Tissue Distribution): 4.95 ng/mL
Structure (SMILES): CN(CCOc1ccc(CC2SC(=O)NC2=O)cc1)c1ccccn1 (stereo not shown) [Rosiglitazone, rosiglitazone, reference compound]
- Heart size [5]: increase in heart size
- Amelioration of LTP reduction ([6]; ICV): > 50%
- Change in the slope of fEPSP after sixty minutes of induction of LTP ([6]; ICV): 148.33±2.5%
- fEPSP slope (LTP studies) ([6]; oral): 126±5.3%
- Half-life [7]: 4 h
